Here are results for six compounds from patent US6352960B1, “Controlling agent for agricultural or horticultural bacterial disease” (Meiji Seika Kaisha, Ltd., priority 1998, dated 2002).

Experiment [1] relates to Japanese apricot canker bacterium (Pseudomonas syringae pv. morsprunorum). In words: Controlling effect on Japanese apricot bacterial canker (2), potted seedlings, spray inoculation. Conditions: leaf spray before inoculation, after 7 days. Format: in vivo. The procedure:
(§1) Preventive value=(1−disease severity of treated lot/disease severity of non-treated lot)×100
Japanese apricot seedlings rested for the winter season in the open field were cut to the height of 60 cm and transplanted to 1/5000 a Wagner pots and allowed to sprout and develop leaves in a greenhouse were tested. After giving fine bruises to the leaves with Carborandum, water was sprayed sufficiently to flow away the Carborandum. After air drying, the agents diluted to predetermined concentrations with water were sprayed onto the leaves, which were air dried again. Japanese apricot canker bacterium (Pseudomonas syringae pv. morsprunorum) preliminarily cultivated in PPG medium (200 g of potato, 3 g of disodium phosphate (dodecahydrate), 0.5 g of dikalium phosphate, 5 g of peptone, 3 g of sodium chloride, 5 g of glucose, 1 L of distilled water) was inoculated by spraying together with the medium. The inoculated plants were placed under controlled humid conditions (temperature 20° C., humidity 99% to 100%) for 40 hours and then transferred to a greenhouse to allow the disease to emerge. After 7 days, the lesion area in each lot was measured and disease severity and preventive value were calculated according to the following indices.
1: Several lesions on the leaves of one branch;
2: The damaged area was less than ¼ of the total area of the leaves on one branch;
3: The damaged area was from ¼ to less than ½ of the total area of the leaves on one branch;
4: The damaged area was from ½ to less than ⅔ of the total area of the leaves on one branch; and
5: The damaged area was ⅔ or more of the total area of the leaves on one branch.
Disease severity=Σ(Index×The number of data)÷(Total number of data×5)×100

Experiment [2] has as its system citrus canker bacterium (Xanthomonas campestris pv. citri). In words: Controlling effect on citrus canker, pot-grown Watson pomelo leaves. Particulars: 20 leaves, after 1 month. Type of experiment: in vivo. The procedure: as §1
(§2) (Disease severity may be replaced by degree of damage or ratio of damage.)
Commercially available Agrepto wettable powder containing 25% of streptomycin sulfate (20% as streptomycin) or commercially available Iminoctadine ABS salt [trade name: Bellkute wettable powder (40%)] was diluted to a predetermined concentration and tested. The preparations produced according to Preparation Examples 2 and 4 were also diluted to predetermined concentrations. 20 new leaves of pot-grown Watson pomelo were tested for each of the preparations. After wounding the leaves with a needle, each predetermined agent solution was sprayed thereon and the leaves were air dried. Then, citrus canker bacterium (Xanthomonas campestris pv. citri) was inoculated with the density of 1×10^6 cells. Thereafter, the trees were put into controlled cultivation in a greenhouse. After 1 month, the emergence of citrus canker was investigated.

The test system of experiment [3] is vegetables' soft rot disease bacterium (Erwinia carotovora sub-sp. cartovora). In words: in vitro antibacterial test on PDA culture medium. Format: cell-based. More on the design: key to growth of bacteria: +++: Colonies grew well; ++: Growth was slightly suppressed; +: Growth was strongly suppressed but proliferation was observed; −: No proliferation was observed. Particulars: for growth of bacteria: 28° C., after 3 days. How it is done: (§3) Each agent was dissolved in sterilized water and added to PDA culture medium (Nissui Seiyaku Co., Ltd.) and Japanese apricot canker bacterium (Pseudomonas syringae pv. morsprunorum), vegetables' soft rot disease bacterium (Erwinia carotovora sub-sp. cartovora), and citrus canker bacterium (Xanthomonas campestris pv. citri) were inoculated.
(§4) The Japanese apricot canker bacterium was cultivated at 21° C., the vegetables' soft rot disease bacterium and citrus canker bacterium were cultivated at 28° C. After 3 days from the start of cultivation, the growth of bacteria was monitored.

Experiment [4] relates to citrus canker bacterium (Xanthomonas campestris pv. citri). In words: in vitro antibacterial test on PDA culture medium. Type of experiment: cell-based. More on the design: key to growth of bacteria: +++: Colonies grew well; ++: Growth was slightly suppressed; +: Growth was strongly suppressed but proliferation was observed; −: No proliferation was observed. Particulars: for growth of bacteria: 28° C., after 3 days. The procedure:
as §3, §4

For experiment [5], the system named is Japanese apricot canker bacterium (Pseudomonas syringae pv. morsprunorum). In words: in vitro antibacterial test on PDA culture medium. Format: cell-based. More on the design: key to growth of bacteria: +++: Colonies grew well; ++: Growth was slightly suppressed; +: Growth was strongly suppressed but proliferation was observed; −: No proliferation was observed. Conditions: for growth of bacteria: 21° C., after 3 days. How it is done:
as §3, §4

The next experiment concerns Celery cabbage soft rot. In words: Controlling effect on Celery cabbage soft rot, field test. Type of experiment: in vivo. Conditions: sprayed 3 times at 7-day intervals. The procedure:
as §1, §2
Commercially available Agrepto wettable powder containing 25% of streptomycin sulfate (20% as streptomycin) or commercially available Iminoctadine ABS salt [trade name: Bellkute wettable powder (40%)] was diluted to a predetermined concentration and tested. The preparations produced according to Preparation Examples 1 and 3 were also diluted to predetermined concentrations. In early August, Celery cabbages were sown in 5.2 m^2 per lot in triplicate. From 20 September when the plant reached 10-leaf stage, the predetermined agents were continually sprayed 3 times with intervals of 7 days. In late October, the disease severity and degree of damage of Celery cabbage soft rot were investigated using 4-rank indices.
1: Only a portion of outer leaves damaged;
2: A portion of outer leaves and head portion damaged; and
3: Most part of head portion damaged.
Degree of damage=Σ(Index×the number of individuals)÷(the number of individuals searched×3)×100

The subject of experiment [6] is Japanese apricot bacterial canker. In words: Controlling effect on Japanese apricot bacterial canker (1), field trees, spray. Type of experiment: in vivo. Conditions: sprayed four times at 10-day intervals. How it is done:
as §1
Commercially available Agrepto wettable powder containing 25% of streptomycin sulfate (20% as streptomycin) or commercially available Iminoctadine ABS salt [trade name: Bellkute wettable powder (40%)] was diluted to a predetermined concentration and tested. Also, the preparation produced according to Preparation Example 2 was diluted to a predetermined concentration and tested.
Young 5-year old Japanese apricot trees which frequently suffered from Japanese apricot bacterial canker in the preceding year, were tested. Predetermined agents were continually sprayed four times with intervals of 10 days starting from early April. In May, the disease severity of Japanese apricot bacterial canker was searched on 100 fruits per tree for total 5 trees in each lot and the results were evaluated by 5-rank indices.
The damaged fruits were searched and disease severity and preventive value were calculated using the indices and equation below.
2: Medium=6 to 15 lesions
6: Extreme=31 or more lesions or with cracks
Disease severity=Σ(Index×The number of damaged fruits per degree)÷(6×The number of tested fruits)×100

The next experiment deals with genus Xanthomonas. Particulars: from Japanese Patent Publication No. Sho 43-27335; cited from earlier work.
A further experiment has as its system genus Pseudomonas. Conditions: from Japanese Patent Publication No. Sho 43-27335; cited from earlier work.

Molecules are shown by their SMILES. Counter-ions that a name gives are not always drawn.

As to `N=C(N)NCCCCCCCCNCCCCCCCCNC(=N)N` [Iminoctadine ABS salt, bis(8-guanidinooctyl)amine], the Disease severity in experiment [1] (200 ppm) was 19; in experiment [6] (200 ppm), 1.2. The Preventive value stood at 73 in experiment [1] (200 ppm); 55 in experiment [2] (50 ppm); 75 in experiment [2] (100 ppm); 85 in experiment [2] (400 ppm); 71 in the experiment with Celery cabbage soft rot (200 ppm); 68 in experiment [6] (200 ppm). In addition, the “Ratio of suffering leaves” value is recorded as 45 in experiment [2] (50 ppm), 25 in experiment [2] (100 ppm) and 15 in experiment [2] (400 ppm). For the same compound, the “The number of suffering leaves” value in experiment [2] (50 ppm) is reported as 9; in [2] (100 ppm), 5; in [2] (400 ppm), 3. Moreover, the growth of bacteria result in experiment [3] (1 ppm in PDA medium), in experiment [3] (10 ppm in PDA medium), in experiment [3] (100 ppm in PDA medium), in [4] (1 ppm in PDA medium), in [4] (10 ppm in PDA medium) and in experiment [4] (100 ppm in PDA medium) was “+++” each time. Further, the growth of bacteria entry in experiment [5] (1 ppm in PDA medium) was “+++”; in [5] (10 ppm in PDA medium) it was “+++”; in experiment [5] (100 ppm in PDA medium), “++”. Also, the “suppression of growth in vitro” value in experiment [3] (even added at 100 ppm), in experiment [4] (even added at 100 ppm) and in experiment [5] (even added at 100 ppm) was “did not suppress the growth” throughout. The Degree of damage with Celery cabbage soft rot (200 ppm) amounted to 6.4. Besides, in the experiment on Celery cabbage soft rot (200 ppm), the “The number of individuals damaged” value is on record as 12. Further, in experiment [6] (200 ppm), the “The number of damaged fruits” value was found to be 18.
For the compound `CCn1cc(C(=O)O)c(=O)c2cc3c(cc21)OCO3` [Oxolinic acid, oxolinic acid], the growth of bacteria entry in experiment [3] (1 ppm in PDA medium) is on record as “−”; in experiment [3] (10 ppm in PDA medium), “−”; in experiment [4] (1 ppm in PDA medium), “+++”; in experiment [4] (10 ppm in PDA medium) it was “++”; in experiment [5] (1 ppm in PDA medium), “++”; in experiment [5] (10 ppm in PDA medium), “−”. Further, the Degree of damage in the experiment with Celery cabbage soft rot (100 ppm) is reported as 3.3. This compound registered a Preventive value with Celery cabbage soft rot (100 ppm) of 85. The “The number of individuals damaged” value with Celery cabbage soft rot (100 ppm) amounted to 4.
In the case of `[H]/N=C(/N)N[C@H]1[C@H](O)[C@@H](O)[C@H](O[C@@H]2O[C@@H](C)[C@](O)(C=O)[C@H]2O[C@@H]2O[C@@H](CO)[C@H](O)[C@@H](O)[C@@H]2NC)[C@@H](N/C(N)=N\[H])[C@@H]1O` [Streptomycin sulfate, streptomycin sulfate], the Disease severity is 24 in experiment [1] (125 ppm) and 1.6 in [6] (125 ppm). Besides, the Preventive value in experiment [1] (125 ppm) turned out to be 67; in [2] (62.5 ppm), 60; in experiment [2] (125 ppm), 80; in [2] (500 ppm), 95; in the experiment with Celery cabbage soft rot (125 ppm), 79; in [6] (125 ppm), 57. Also, the entries for the “Ratio of suffering leaves” value in experiment [2] (62.5 ppm), in experiment [2] (125 ppm) and in experiment [2] (500 ppm) were 40, 20 and 5, respectively. The figures for the “The number of suffering leaves” value in [2] (62.5 ppm), in experiment [2] (125 ppm) and in experiment [2] (500 ppm) were 8, 4 and 1, respectively. Further, the growth of bacteria result in experiment [3] (1 ppm in PDA medium) is on record as “+”; in experiment [3] (10 ppm in PDA medium), “−”; in experiment [3] (100 ppm in PDA medium), “−”; in [4] (1 ppm in PDA medium), “++”; in experiment [4] (10 ppm in PDA medium), “+”; in experiment [4] (100 ppm in PDA medium), “−”. Also, the results for the growth of bacteria result in experiment [5] (1 ppm in PDA medium), in experiment [5] (10 ppm in PDA medium) and in experiment [5] (100 ppm in PDA medium) were “++”, “+” and “−”, respectively. In the experiment on Celery cabbage soft rot (125 ppm), this compound yielded a Degree of damage of 4.6. The “The number of individuals damaged” value with Celery cabbage soft rot (125 ppm) is reported as 10. Moreover, the “The number of damaged fruits” value in experiment [6] (125 ppm) amounted to 23.
Turning to `N=C(N)NCCCCCCCCNCCCCCCCCNC(=N)N.O=S(=O)(O)O` [bis (8-guanidiooctyl) amine sulfate], the “in vitro antibacterial activity against plant pathogenic bacteria” value (shortened to “in vitro antibacterial activity”) in the experiment on genus Xanthomonas and with genus Pseudomonas was “no activity” in each case.
Take `N=C(N)NCCCCCCCCCCNCCCCCCCCCCNC(=N)N.O=S(=O)(O)O` [bis (10-guanidinodecyl) amine sulfate]: the “in vitro antibacterial activity” value in the experiment with genus Xanthomonas and with genus Pseudomonas was “revealed to have in vitro antibacterial activity” each time.
For `Cl.N=C(N)NCCCCCCCCCCCCNCCCCCCCCCCCCNC(=N)N` [bis (12-guanidinododecyl) amine hydrochloride], the “in vitro antibacterial activity” value in the experiment with genus Xanthomonas and with genus Pseudomonas was “revealed to have in vitro antibacterial activity” each time.
